Consider twelve molecules from patent US6225321A (priority 1997, dated 2001).

The test system of one data set is Sprague Dawley rats. The experiment in a line: Analgesic effect, cold ethanol bath tail flick test, intramuscular, rats. Type of data set: in vivo, rat. To be noted: FIG. 6, rats, 25 micromole/kg intramuscular; for analgesic duration of Nalbuphine free base compared with the preparation of this ester: the shorter one is Nalbuphine free base. The procedure: Sprague Dawley rats(175 to 225 g) were used. Each group consisted of 6 rats and each rats was injected once intramuscularly on the rear leg. […]
The dose for each rat was 25 micromole per kg, intramuscularly.
In the experiment, a circulating cold ethanol bath with a temperature maintained at -20° C. was set up. After dosing, the rat tail(1/3 from the tip) was immersed in the bath. The latency for the rat to flick its tail from the bath was measured to be the nociceptive threshold. The effect of various opium alkaloid preparations can be determined with this test.
The nociceptive effect can be calculated as follows: [formula]
35, 25, 15 minutes before dosing, Male Sprague Dawley rat(175-225 g) was tested to measure the basic response latency. The time to top the experiment was set at 40 seconds to prevent the tail from cold sore. No cold sore were found in 40 sec. Five minutes after the drug was given to the rat, the flick test was performed every 10 minutes or more. […]
(c) Dinalbuphine sebacoyl ester, dose was 7.8125 μ/kg, 31.25 μM/kg, 125 μM/kg.
(d) 50 mg/ml dinalbuphine sebacoyl ester parenteral dosage forms, dinalbuphine sebacoyl ester was prepared in sesame oil.
Background: In hot-plate and tail-flick tests a longer latency is read as antinociception.

Another data set relates to human. As to conditions: Shafer et al. 1991; cited from earlier work.
For data set [1] the following is noted: cited from earlier work.
The conditions of data set [2]: between 17 and 28 hours; p<0.05.
The subject of the next data set is guinea pigs. The data set can be described thus: Analgesic effect, intramuscular, guinea pigs. Type of data set: in vivo, guinea pig. As to conditions: hydrochloride. How it is done: Six male Sprague Dawley rats (175 to 225 g), and six male guinea pigs (200 to 250 g) were used.
Dose for guinea pig was 500 μ/kg, 250 μM/kg.

For data set [3] the following is noted: comparison value for Nalbuphine hydrochloride, source not stated; cited from earlier work.

Where “and” joins values, the source holds several entries; their conditions need not be identical. Equal entries are not always repeated. Structures can show the parent of a compound that is named as a salt.

As for `O=C(Oc1ccc2c3c1O[C@H]1[C@@H](O)CC[C@@]4(O)[C@@H](C2)N(CC2CCC2)CC[C@]314)c1ccccc1` [Nalbuphine benzoate], the “analgesic duration of Nalbuphine free base compared with the preparation of this ester” value in the data set on Sprague Dawley rats is “significantly shorter”. For `Oc1ccc2c(c1)[C@@]13CCCC[C@@]1(O)[C@@H](C2)N(CC1CCC1)CC3` [Butorphanol], the “dose needed to elicit the same analgesic effect” value in the data set on human was 2 mg. In the case of `CC(C)(C)C(=O)Oc1ccc2c3c1O[C@H]1[C@@H](O)CC[C@@]4(O)[C@@H](C2)N(CC2CCC2)CC[C@]314` [Nalbuphine pivalate], the “analgesic duration of Nalbuphine free base compared with the preparation of this ester” value with Sprague Dawley rats was “significantly shorter”. Regarding `C#C[C@]1(OC(=O)CCCCCC)CC[C@H]2[C@@H]3CCC4=CC(=O)CC[C@@H]4[C@H]3CC[C@@]21C` [Northisterone enanthate], the “dosing interval can be set longer to” value in data set [1] (Joshi et al. 1989) is “two months”. On to `CCCCCCC(=O)Oc1ccc2c3c1O[C@H]1[C@@H](O)CC[C@@]4(O)[C@@H](C2)N(CC2CCC2)CC[C@]314` [Nalbuphine enanthate], for which the “analgesic duration of Nalbuphine free base compared with the preparation of this ester” value with Sprague Dawley rats is “significantly shorter”. As to `C[C@]12CC[C@H]3[C@@H](CCC4=CC(=O)CC[C@@]43C)[C@@H]1CC[C@@H]2O` [Testosterone], the drug release result in data set [1] (suspension) is given as “released quickly”. In the case of `Oc1ccc2c3c1O[C@H]1[C@@H](O)CC[C@@]4(O)[C@@H](C2)N(CC2CCC2)CC[C@]314` [Nalbuphine free base, reference compound], in the data set with Sprague Dawley rats, the “analgesic duration compared with preparations of Nalbuphine monomer ester” value is on record as “significantly shorter”. The “amount of released Nalbuphine free base” value in data set [2] was “less in the preparation with sesame oil than with peanut oil ester and the control”. As for `Oc1ccc2c3c1O[C@H]1[C@@H](O)CC[C@@]4(O)[C@@H](C2)N(CC2CCC2)CC[C@]314` [Nalbuphine hydrochloride], in the data set on guinea pigs, the “dose at which significant analgesic effect was found” value is 500 µM/kg and 250 µM/kg. For the same molecule, the “half life for excretion” value in data set [3] was “about 1 hour”.

As to `CCCCCCCCCC(=O)Oc1ccc2c3c1O[C@H]1[C@@H](O)CC[C@@]4(O)[C@@H](C2)N(CC2CCC2)CC[C@]314` [Nalbuphine decanoate], in the data set with Sprague Dawley rats, the “analgesic duration of Nalbuphine free base compared with the preparation of this ester” value is “significantly shorter”.

With `CCCCCCCCCC(=O)OC1(c2ccc(Cl)cc2)CCN(CCCC(=O)c2ccc(F)cc2)CC1` [Haloperidol decanoate], the “dosing frequency to which effect was extended” value in data set [1] (intramuscular, Gelders 1986) is on record as 1 to 2 times a month. `CCC(=O)Oc1ccc2c3c1O[C@H]1[C@@H](O)CC[C@@]4(O)[C@@H](C2)N(CC2CCC2)CC[C@]314` [Nalbuphine propionate]: the “analgesic duration of Nalbuphine free base compared with the preparation of this ester” value in the data set with Sprague Dawley rats is reported as “significantly shorter”. Consider `CN1CC[C@]23c4c5ccc(O)c4O[C@H]2[C@@H](O)C=C[C@H]3[C@H]1C5` [Morphine], for which, in the data set on human, the “dose needed to elicit the same analgesic effect” value was 10 mg.
